The source of these data is PubChem BioAssay (NCI).

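All cell lines were grown in 96-well plates and treated with compound for 48 hours. Here, GI50 denotes the concentration required for 50% inhibition of growth. TGI marks complete inhibition of growth.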

In this test the test system is MDA-MB-468 breast. Briefly: growth of human tumour cells (NCI), 48 h.

As for `CCCCCN(CCCCC)CCC[C@@H](C)[C@H]1CC[C@H]2[C@@H]3[C@H](OCCCN)C[C@@H]4C[C@H](OCCCN)CC[C@]4(C)[C@H]3C[C@H](OCCCN)[C@]12C`, the GI50 was 13 µM and the TGI came to 29.8 µM.

Consider `Cc1[nH]c2ccccc2c1CO`, for which the GI50 was 19.4 µM and the TGI was found to be 41.4 µM.

With `Clc1cc(Br)ccc1-c1ccc(CNCC2CCNCC2)o1`, the GI50 was 1.71 µM and the TGI amounted to 3.41 µM.

`COC(=O)c1c2c(c(C)[n+]([O-])c1C)C(=O)C(NCc1ccccc1)=CC2=O`: the GI50 was 1.3 µM and the TGI came out at 3.15 µM.

On to `CCOC(=O)c1c(NN2CCN(CC(F)(F)F)CC2)oc(/C=C2\C=Nc3ncccc32)c1O`, for which the GI50 was 3.01 µM and the TGI is 12 µM.

Turning to `CCN1/C(=C/C(C)=C/c2sc3ccc4ccccc4c3[n+]2CC)Sc2ccc3ccccc3c21`, the GI50 was 0.0156 µM and the TGI was determined as 0.156 µM.

As for `CCCCCCCCCCCCCCCCn1cc[n+](C)c1`, the GI50 is 0.092 µM and the TGI came to 0.431 µM.

As for `COc1ccc(Nc2ncc(I)c(NCCCNC(=O)C3CCC3)n2)cc1`, the GI50 was 11.9 µM and the TGI amounted to 38.6 µM.

Consider `Cc1cccc2c(=O)c3c(sc12)c(NCCCNCCO)nc1ccccc13`, for which the GI50 is 1.47 µM and the TGI came to 3.04 µM.

For the compound `Cc1[nH]c(C(=O)Nc2ccc(C(=O)NCCN)cc2OC(C)C)c(Cl)c1Cl`, the GI50 is 1.91 µM and the TGI was determined as 3.67 µM.

In the case of `CCCCCCOC(=O)CC1=C(C)/C(=C/c2[nH]c(-c3ccc[nH]3)cc2OC)N=C1C`, the GI50 was 0.155 µM and the TGI stood at 1.43 µM.

For the compound `Cc1ccc(-c2cc(C(=O)Nc3ccc(S(=O)(=O)N4CCCCC4)cc3)[nH]n2)c(O)c1`, the GI50 is over 100 µM and the TGI was over 100 µM.

As for `COC(=O)[C@H](Cc1cn(C)cn1)NC(=O)[C@H](CC(C)C)NC(=O)Nc1cc(C(F)(F)F)cc(C(F)(F)F)c1`, the GI50 is 3.71 µM and the TGI was over 10 µM.

For `C#CCNC1CCC(c2csc(C#C)n2)=C1C` (stereo not given), the GI50 is 3.17 µM and the TGI was found to be 18.8 µM.

As for `COc1cc2c(cc1OC)[C@@H]1C(=O)c3ccc4c(c3O[C@@H]1CO2)C[C@H](C(C)C)O4`, the GI50 is under 0.0181 µM and the TGI was 0.867 µM.

As for `COc1ccc(C(=O)/C=C/c2cc(-c3ccc(OC)c(OC)c3)n[nH]2)cc1OC`, the GI50 was 1.09 µM and the TGI stood at 2.56 µM.

For the compound `Cc1ncc(C(=O)Nc2ccc(CN3CCN(C)CC3)c(C(F)(F)F)c2)cc1C#Cc1cnc(N)c2ccc(C#N)cc12`, the GI50 is 0.0613 µM and the TGI is 5.13 µM.

With `CCn1nc(C2CCN(C(=O)CCO)CC2)nc1-c1cnc(N)c(-c2nnc(C(C)(C)C)o2)n1`, the GI50 is 1.28 µM and the TGI turned out to be 16.1 µM.

`COc1ccc(C)c2sc(N(Cc3cccnc3)C(=O)c3ccc(C#N)cc3)nc12`: the GI50 was 35 µM and the TGI was over 100 µM.

For the compound `OCc1ccc(-c2nc(-c3ccc4c(c3)OCO4)c(-c3ccccn3)[nH]2)cc1`, the GI50 was over 25 µM and the TGI was over 25 µM.

As to `CC(C)[C@@]12C[C@@H](OC(=O)C3CO3)[C@@](C)(O1)[C@@H]1CC[C@@H](C)[C@H]1[C@@H]2OC(=O)/C=C/c1ccccc1` (stereo not given in full), the GI50 is 16.9 µM and the TGI amounted to 34.8 µM.

Turning to `O=C1OC2(c3ccc(O)cc3Oc3cc(O)ccc32)c2cccc3cccc1c23`, the GI50 is 16.1 µM and the TGI is 34.3 µM.

With `CCOC(=O)c1ccc(N2NC(=O)/C(=C/c3ccc([N+](=O)[O-])o3)C2=O)cc1`, the GI50 was 6.69 µM and the TGI worked out at 14.5 µM.

`NC(=O)c1cn(C2CC(O)C(CO)O2)c2ncnc(N)c12` (stereo not given): the GI50 was 0.486 µM and the TGI came out at 3.77 µM.

For the compound `COC(=O)CCc1n(Cc2ccc3ccccc3c2)c2ccccc2[n+]1Cc1ccc2ccccc2c1`, the GI50 is 0.196 µM and the TGI was 1.13 µM.

In the case of `Clc1ccc(-c2cnc3c(-c4ccnc(N5CCNCC5)c4)cnn3c2)cc1`, the GI50 was 1.54 µM and the TGI was 2.99 µM.

On to `CCCCN(CCCC)P(=O)(Oc1ccccc1)Oc1ccccc1`, for which the GI50 is 3.03 µM and the TGI is 11.7 µM.

Take `COc1cccc(/C=N\NC(=O)c2ccncc2)c1O`: the GI50 is 2.32 µM and the TGI stood at 11.2 µM.

`COc1cc(OC)c(C(=O)/C=C/c2ccc(C#N)cc2)c(OC)c1`: the GI50 was 1.17 µM and the TGI was 3.48 µM.

As for `Cc1nnn(C)c1-c1cnc2c3ccc(C(C)(C)O)cc3n([C@H](c3ccccc3)C3CCOCC3)c2c1`, the GI50 is under 0.01 µM and the TGI was found to be 8.91 µM.

`COc1cc(CSc2nc3ccc(Cl)cc3c(=O)n2Cc2ccccc2)cc(OC)c1OC`: the GI50 was 1.07 µM and the TGI turned out to be 4.03 µM.

In the case of `O=C1CN=C(c2ccc[nH]2)c2cc(Cl)ccc2N1`, the GI50 is over 100 µM and the TGI is over 100 µM.

As to `O=C(COc1ccccc1)NNc1ccccc1`, the GI50 was over 300 µM and the TGI is over 300 µM.

Consider `CCc1cc2c(c(OCC(F)(F)F)c(C(=O)NC3CCN(C(=O)CO)CC3)n2C)c(=O)n1CC(=O)c1ccccc1`, for which the GI50 was 70.6 µM and the TGI is over 100 µM.

`c1cc(OCCN2CCCC2)ccc1CNc1ccc2nc(CCC3CCCCC3)[nH]c2c1`: the GI50 is 1.47 µM and the TGI is 3.63 µM.

Regarding `CCCN(CCC)c1ccc(/C=N/NC(=O)c2cccnc2)c(C)c1`, the GI50 is 2.95 µM and the TGI was 15.1 µM.

With `COc1ccc(C2c3ccc4ccccc4c3Oc3ncn(CCCn4ccnc4)c(=N)c32)cc1OC` (stereo not given), the GI50 was 2.12 µM and the TGI was found to be 5.45 µM.

Turning to `CCOc1ccccc1/C=N\N=C(N/N=C/c1ccccc1OCC)N/N=C/c1ccccc1OCC`, the GI50 was 1.54 µM and the TGI came out at 7.16 µM.

Consider `COc1ccc(Sc2[nH]c(C=O)c3ccccc23)cc1`, for which the GI50 was 1.42 µM and the TGI was found to be 24.3 µM.

As to `CC(C)CCN(CCC(C)C)CC(=O)Nc1ccc(S(=O)(=O)c2ccc(NC(=O)CN(CCC(C)C)CCC(C)C)cc2)cc1`, the GI50 is 2.39 µM and the TGI worked out at 7.52 µM.

As for `Cn1cnc([N+](=O)[O-])c1S(=O)(=O)Oc1ccc(Cl)cc1`, the GI50 was 1.74 µM and the TGI turned out to be 3.7 µM.

Consider `COc1cccc2c1C(=O)c1c(O)c3c(c(O)c1C2=O)C[C@](O)(C(=O)CO)C[C@H]3O[C@@H]1C[C@@H](NC(=O)CCCN(C)C2(c3ccc(F)cc3)CC3CCC2C3)[C@H](O)[C@@H](C)O1` (stereo not given in full), for which the GI50 is 0.879 µM and the TGI was 1.73 µM.

On to `O=C(Nc1ccc(I)cc1F)c1cc(Br)ccc1O`, for which the GI50 is 0.401 µM and the TGI was 2.33 µM.

As to `CC(C)(C)c1cc(C[P+](c2ccccc2)(c2ccccc2)c2ccccc2)cc(C(C)(C)C)c1O`, the GI50 is 0.216 µM and the TGI amounted to 0.771 µM.

Regarding `CCCCCSc1ccc2nc(NC(=O)OCC)sc2c1`, the GI50 is 0.564 µM and the TGI is 14.8 µM.
